The values below come from publication PMC5041982, “Small-molecule inhibition of STAT3 in radioresistant head and neck squamous cell carcinoma” (Oncotarget, 2016).

Molecules are shown by their SMILES. Like-named read-outs stand apart in the source and are kept apart here.

Data set [1] has as its system HNSCC cell lines. Kind of data set: Anchorage independent growth (MTT), all four cell lines. The conditions noted are these: Homo sapiens; SCC-35, SCC-61, UM-SCC-17B, HN30; read-out: Anchorage independent growth IC50, range over all four cell lines. The data set is classed as cell-based. How it is done:
(§1) GAPDH-normalized pSTAT3 or pSTAT1 values were divided by that for untreated cells and expressed in percentage. These values were plotted as a function of Log [M] compound, and IC50 values calculated using GraphPad. […] Viable cells quantitated using MTT. Relative % viability was measured by (viability after any treatment ÷ viability of untreated cells × 100) and plotted as a function of Log [M] […] C. […] Representative curves are shown.
(§2) Cells were cultured in triplicates in complete DMEM ± drug, in ultra-low attachment 96 well plates for 72 hrs or cell-culture treated plates for 48 hrs and viable cells were quantitated using MTT. Optical density (OD) was measured at 590 nm using a 96-well multi-scanner (EL-800 universal microplate reader, BioTek Inc, VT, USA). Relative % viability (viability after any treatment ÷ viability of untreated cells × 100) was plotted along Y-axis. At least 2 replicates experiments were performed and were used for IC50 calculation using GraphPad software.

A short description of data set [2]: Log P. It is filed as physicochemical.
The subject of data set [3] is SCC-61 cells. Kind of data set: Anchorage independent growth (MTT). The data set is classed as cell-based. To be noted: Homo sapiens; Figure 4C, SCC-61, 72 hrs; read-out: Anchorage Independent growth IC50, representative curve. How it is done: as §1, §2
Data set [4] deals with SCC-35 cells. Nature of the data set: Anchorage independent growth (MTT). The conditions noted are these: Homo sapiens; SCC-35, 72 hrs; mean; read-out: IC50 Cell growth (MTT), anchorage independent. The data set is classed as cell-based. How it is done: as §1, §2
In data set [5] the test system is UM-SCC-17B cells. Nature of the data set: Anchorage independent growth (MTT). It is filed as cell-based. To be noted: Homo sapiens, 72 hrs. How it is done: as §1, §2
Data set [6] concerns HN30 cells. Nature of the data set: Anchorage independent growth (MTT). The data set is classed as cell-based. To be noted: Homo sapiens. How it is done: as §1, §2

On to `COc1ccc(S(=O)(=O)Nc2cc(-c3c(O)ccc4ccccc34)c(O)c3ccccc23)cc1` [Compound C188-9], for which the 50% inhibitory concentration (IC50) in data set [1] is 0.7 to 14.8 µM; in data set [3], 12.7 µM; in data set [4], 10.8 µM; in data set [5] (mean, read-out: IC50 Cell growth (MTT), anchorage independent), 0.7 ± 0.6 µM; in data set [5] (Figure 4C, read-out: Anchorage Independent growth IC50, representative curve), 1.1 µM; in data set [6] (Figure 4C, HN-30, 72 hrs, read-out: Anchorage Independent growth IC50, representative curve), 4.3 µM. In addition, the IC50 in data set [6] (HN30, 72 hrs, mean, read-out: IC50 Cell growth (MTT), anchorage independent) was found to be 4.4 ± 0.1 µM. The compound also registered a log partition coefficient (logP) in data set [2] of 5.2.
